Assay results published in patent US11166916B2, “Carbon quantum dots and preparation process and use thereof” (CHANG GUNG UNIVERSITY, priority 2019, dated 2021).
≈ marks a conversion by molar mass, not a printed value.

How the values were obtained:
Experiment in all cases: Antimicrobial test, MIC90 by spread plate count
[1] = system: Staphylococcus aureus; assay type: cell-based; conditions: ATCC9144, Staphylococcus aureus ATCC 9144
Experimental: (§1) A respective one of Staphylococcus aureus, Escherichia coli, Pseudomonas aeruginosa, Salmonella enteritidis, and MRSA was inoculated into a LB broth, followed by incubation in a thermostatic shaking incubator (37° C.) until an OD600 value of 1.0 was reached. The respective resultant culture was centrifuged at 3,000 g for 10 minutes, and the cell pellet thus obtained was washed with a 5 mM phosphate buffer (pH 7.4), followed by suspending with a LB broth. The resultant bacterial broths of Staphylococcus aureus, Escherichia coli, Pseudomonas aeruginosa, Salmonella enteritidis, and MRSA (each of such five bacterial suspensions contained a bacterial concentration of 1×10^4 CFU/mL) were used for the following experiment.
(§2) A suitable amount of a respective one of CQD^DA, CQD^SPD, CQD^DA-SPM, CQD^DA-SPD, CQD^DA-PUT, CQD^DA-SPM-1, and CQD^DA-SPM-2 was freeze-dried, and the respective resultant freeze-dried powder was dissolved in deionized water, followed by dilution with a 5 mM phosphate buffer (pH 7.4), so as to obtain seven CQD solutions having different concentrations (0.05-50 μg/mL).
(§3) A respective one of the five CQD solutions (i.e., CQD^DA, CQD^SPD, CQD^DA-SPM, CQD^DA-SPD, and CQD^DA-PUT solutions), the DA solutions, and the SPM solutions and a respective one of the bacterial broths of Staphylococcus aureus and Escherichia coli were mixed in a 5 mM phosphate buffer (pH 7.4), and the respective resultant mixture was incubated in a thermostatic shaking incubator (37° C.) for 1 hour, followed by addition of a suitable amount of LB broth. After incubation with shaking for 18 hours, the respective resultant culture was subjected to serial dilution with a LB broth, so as to obtain seven dilutions (10^1 to 10^7).
(§4) Thereafter, 1 μL of the respective dilution was subjected to spread plate procedure. The number of surviving bacteria was counted, and the minimum inhibitory concentration to inhibit the growth of 90% of a bacterial isolate (MIC90) was determined according to the technique well known to and routinely used by one skilled in the art.
(§5) A respective one of the four CQD solutions (i.e., CQD^DA, CQD^DA-SPM, CQD^DA-SPM-1, and CQD^DA-SPM-2 solutions) and the SPM solutions and a respective one of bacterial broths of Staphylococcus aureus, Escherichia coli, Pseudomonas aeruginosa, Salmonella enteritidis, and MRSA were mixed in a 5 mM phosphate buffer (pH 7.4), and the respective resultant mixture was subjected to antimicrobial activity analysis according to the method described in section E of this example.

[2] = system: Escherichia coli; assay type: cell-based; conditions: BCRC10316, Escherichia coli BCRC 10316
Experimental: as §1, §2, §3, §4, §5

[3] = system: Salmonella enteritidis; assay type: cell-based; conditions: Salmonella enterica, ATCC 13076 / ENTERITIDIS; Table 4; Salmonella enteritidis ATCC 13076
Experimental: as §1, §2, §3, §4, §5

[4] = system: Pseudomonas aeruginosa; assay type: cell-based; conditions: ATCC10145; Table 4; Pseudomonas aeruginosa ATCC 10145
Experimental: as §1, §2, §3, §4, §5

[5] = system: MRSA; assay type: cell-based, Methicillin-resistant Staphylococcus aureus; conditions: Staphylococcus aureus, ATCC 33592 / MRSA; Table 4; MRSA ATCC 33592
Experimental: as §1
as §2, with “μg/mL). […]” for “μg/mL).”

[6] = Table 3, 1 h in 5 mM phosphate buffer pH 7.4, then 18 h in LB broth

MIC90 [1, 6]	MIC90 [2, 6]	MIC90 ([1]; Table 4)	MIC90 [3]	MIC90 ([2]; Table 4)	MIC90 [4]	MIC90 [5]	SMILES
250 µg/mL (≈ 1.63 mM)	512 µg/mL (≈ 3.34 mM)						NCCc1ccc(O)c(O)c1 [DA, dopamine]
658 µg/mL (≈ 3.25 mM)	2350 µg/mL (≈ 11.6 mM)	658 µg/mL (≈ 3.25 mM)	2660 µg/mL (≈ 13.1 mM)	2350 µg/mL (≈ 11.6 mM)	2450 µg/mL (≈ 12.1 mM)	1550 µg/mL (≈ 7.67 mM)	NCCCNCCCCNCCCN [SPM, spermine]
